Source: patent publication US20060189576A1, “Substituted vitamin d analogues and their therapeutic uses” (priority 2003, published 2006)
Read-outs that look alike come from different tables or passages of the source.

Assays:
[1] = system: MCF-7 cells; test: MCF-7 cell proliferation ([3H]thymidine incorporation); type: cell-based; settings: for IN VITRO STUDIES MCF-7: antiproliferative action, percentage activity vs 1α,25(OH)2D3 (=100%); for Antiproliferative activity on MCF-7 cells: percentage activity (at 50% of the dose response) vs 1α,25(OH)2D3 (=100%); for antiproliferative effect (in words) / antiproliferative activity, times that of 1α,25(OH)2D3: MCF-7 cells
Method: To evaluate the effect of on cell proliferation, malignant MCF-7 cells were cultured in DMEM/nut. mix. […] Cultures were maintained at 37° C. in a humidified atmosphere of 5% CO2 in air. MCF-7 cells were seeded at 5×10^3 cells/well in the above described medium in 96-well microtiter plates in a final volume of 0.2 ml per well. Triplicate cultures were performed. […] Then, 1 μCi [^3H]thymidine was added to each well and cells were harvested after 4 h incubation with a Packard harvester and measured by the Packard Topcount System (Packard, Meriden, USA).

[2] = system: HL-60 cells; test: HL-60 cell differentiation (NBT reduction assay); type: cell-based; settings: for IN VITRO STUDIES HL 60: potency to differentiate HL 60 cells, percentage activity vs 1α,25(OH)2D3 (=100%)
Method: To evaluate the effect on cell differentiation HL-60 cells were seeded at 4×10^4 cells/ml in 25 cm^2 Falcon tissue chambers using RPMI 1640 medium supplemented with 20% FCS and gentamycin (50 μg/ml) in a final volume of 5 ml. Cultures were maintained at 37° C. in a humidified atmosphere of 5% CO2 in air. […] After 4 days of culture, the dishes were shaken to lose adherent cells. Cells were washed twice in RPMI, counted and assayed for differentiation markers (NBT reduction assay). Superoxide production was measured as NBT reducing activity as described previously (Ostrem V. K et al. Proc Natl Acad Sci USA 84: 2610-2614, 1987). HL-60 cells at 1×10^6/ml were mixed with an equal volume of freshly prepared solution of phorbol 12-myristate 13-acetate (200 ng/ml) and […] and incubated for 30 min at 37° C. The percentage of cells containing black formazan deposits was determined using a hemacytometer.

[3] = for Femur calcium: NMRI mice, 7 consecutive days; for IN VIVO STUDIES Osteocalcin serum: mice, daily intraperitoneal injection 7 consecutive days, percentage activity vs 1α,25(OH)2D3 (=100%); for IN VIVO STUDIES Calcium serum / IN VIVO STUDIES Calcium urine / Serum calcium in mice: ip
Method: Eight weeks old, male NMRI mice were obtained from the Proefdierencentrum of Leuven (Belgium) and fed a vitamin D-replete diet (0.2% calcium, 1% phosphate, 2000 U vitamin D/kg; Hope Farms, Woerden, The Netherlands). […] The control group was injected with vehicle (arachis oil). The average weight of each group of 6 mice was determined at the beginning and at the end of the experiment. The following parameters were evaluated: serum calcium, serum osteocalcin, femur calcium and urinary calcium. Serum and urinary calcium were measured by a microcolorimetric assay (Sigma, St. Louis, Mo.). Femurs were removed and femur calcium content was measured in HCl-dissolved bone ash (obtained by heating for 24 h in an oven at 100° C.), using the same technique as for serum and urinary calcium.

[4] = target: T1, hDBP (Homo sapiens, UniProt P02774); test: Affinity for human DBP: competition with [3H]1α,25(OH)2D3; type: binding; settings: percentage activity (at 50% of the dose response) in comparison with 1α,25(OH)2D3 (=100%)
T1 sequence (P02774 17-474): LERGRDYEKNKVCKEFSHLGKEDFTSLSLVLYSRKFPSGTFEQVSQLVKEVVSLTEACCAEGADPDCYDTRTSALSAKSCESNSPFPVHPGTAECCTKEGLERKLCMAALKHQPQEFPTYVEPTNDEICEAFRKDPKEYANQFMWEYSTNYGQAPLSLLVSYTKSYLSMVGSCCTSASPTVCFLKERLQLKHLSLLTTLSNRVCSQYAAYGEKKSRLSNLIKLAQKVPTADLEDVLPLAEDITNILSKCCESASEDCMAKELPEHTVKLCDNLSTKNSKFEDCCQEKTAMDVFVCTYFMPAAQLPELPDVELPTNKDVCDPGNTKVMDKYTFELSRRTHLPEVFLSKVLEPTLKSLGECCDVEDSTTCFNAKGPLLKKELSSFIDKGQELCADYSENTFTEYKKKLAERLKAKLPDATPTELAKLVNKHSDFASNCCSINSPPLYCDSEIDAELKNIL
Method: Phase separation was then obtained by the addition of 0.5 ml of cold dextran-coated charcoal.

[5] = target: T2, vitamin D receptor (Sus scrofa, UniProt A3RGC1); settings: percentage activity (at 50% of the dose response) in comparison with 1α,25(OH)2D3 (=100%)
T2 sequence (A3RGC1 1-427): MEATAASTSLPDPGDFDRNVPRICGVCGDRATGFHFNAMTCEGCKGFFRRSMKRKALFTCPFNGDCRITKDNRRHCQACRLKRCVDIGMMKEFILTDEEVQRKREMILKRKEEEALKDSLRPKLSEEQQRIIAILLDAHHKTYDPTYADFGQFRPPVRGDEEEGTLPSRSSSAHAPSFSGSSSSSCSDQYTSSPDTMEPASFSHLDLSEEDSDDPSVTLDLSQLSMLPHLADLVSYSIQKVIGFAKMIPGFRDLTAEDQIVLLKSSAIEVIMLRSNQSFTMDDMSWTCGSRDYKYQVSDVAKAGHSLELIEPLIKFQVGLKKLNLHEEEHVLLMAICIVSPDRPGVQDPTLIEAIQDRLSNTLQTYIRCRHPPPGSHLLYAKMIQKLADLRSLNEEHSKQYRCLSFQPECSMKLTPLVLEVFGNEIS
Method: The incubation was performed at 4° C. for 20 h and phase separation was obtained by addition of dextran-coated charcoal.

SMILES	IN VITRO STUDIES MCF-7 [1] [%]	Antiproliferative activity on MCF-7 cells [1] [%]	IN VITRO STUDIES HL 60 [2] [%]	Femur calcium ([3]; 0.1 μg/kg/d intraperitoneally) [mg]	Femur calcium ([3]; 0.2 μg/kg/d intraperitoneally) [mg]	Femur calcium ([3]; 0.4 μg/kg/d intraperitoneally) [mg]	IN VIVO STUDIES Osteocalcin serum [3] [%]	IN VIVO STUDIES Calcium serum ([3]; mouse, in vivo) [%]	IN VIVO STUDIES Calcium urine ([3]; mouse, in vivo) [%]	Serum calcium in mice ([3]; mouse, in vivo) [%]	times less active than the parent compound to inhibit MCF-7 cell proliferation ([1]; parent compound 1α,25(OH)2D3) [times]	prodifferentiating effect (in words) ([2]; HL 60 cells)	AFFINITY STUDIES DBP [4] [%]	AFFINITY STUDIES VDR [5] [%]	antiproliferative effect (in words) [1]	further reduction of calcemic activity by the 2β counterpart ([3]; mouse, in vivo) [fold]	antiproliferative activity, times that of 1α,25(OH)2D3 [1] [times]	prodifferentiating activity, times that of 1α,25(OH)2D3 ([2]; HL 60 cells) [times]	increase of capacity to inhibit the proliferation of MCF-7 cells on introduction of the 23-yne side chain ([1]; compared with analogue 102) [times]
C=C1/C(=C\C=C2/CCC[C@]3(C)[C@@H]([C@H](C)CCCC(C)(C)O)CC[C@@H]23)C[C@@H](O)C[C@@H]1O [1α,25(OH)2D3, 1α,25-dihydroxyvitamin D3, reference compound]	100	100	100	8.9 ± 0.50	9.23 ± 0.31	8.75 ± 0.15	100	100	100	100									
C[C@H](CCCC(C)(C)O)[C@H]1CC[C@@H]2/C(=C/C=C3C[C@@H](O)C[C@H](O)C3)CCC[C@@]21C [14-epi-19-nor-1α,25(OH)2D3, reference compound]	30		50					0.3	0.4		3	half as potent as the parent compound	15	19					
CC(CCCC(C)(C)O)C1CCC2C(=CC=C3CC(O)C(C)C(O)C3)CCCC21C (stereo not drawn) [Compound 101, 2β-methyl-19-nor-1α,25-dihydroxyvitamin D3]	80		70					0.5				less potent than 1α,25(OH)2D3	9	75	less potent than 1α,25(OH)2D3	80			
CC(CCCC(C)(C)O)C1CCC2C(=CC=C3CC(O)C(C)C(O)C3)CCCC21C (stereo not drawn) [Compound 102, 2α-methyl-19-nor-1α,25-dihydroxyvitamin D3]	400		1000				15	40				very potent	50	90	very potent		4	10	
CC(CC#CC(C)(C)O)C1CCC2C(=CC=C3CC(O)C(C)C(O)C3)CCCC21C (stereo not drawn) [Compound 103, 2β-methyl-19-nor-23-yn-1α,25-dihydroxyvitamin D3]	900	900	100				0.8	0.4	1.6	0.4			1	20					
CC(CC#CC(C)(C)O)C1CCC2C(=CC=C3CC(O)C(C)C(O)C3)CCCC21C (stereo not drawn) [Compound 104, 2α-methyl-19-nor-23-yn-1α,25-dihydroxyvitamin D3]	10500		1500				4	10				very potent	4	70	very potent		100		26
CC(CCCC(C)(C)O)C1CCC2C(=CC=C3CC(O)C(C)C(O)C3)CCCC21C (stereo not drawn) [Compound 105, 14-epi-2β-methyl-19-nor-1α,25-dihydroxyvitamin D3]	20		75				0.8	0.4	0.4				7	60					
